Measured values as given in the NIST ThermoML archive (doi:10.1016/j.jct.2012.06.031).
Numbers after ± are expanded uncertainties.

Test: xn = mol fraction of the nth substance listed
Details: 101 kPa, Liquid; for viscosity: Concentric cylinders viscometry; for mass density: Vibrating tube method

c1ccncc1 [pyridine] + CCCO
Details | mass density [kg/m3] | viscosity [mPa·s]
288.15 K, x1 = 0.1001 | 829.179 ± 0.15 | 2.059 ± 0.011
288.15 K, x1 = 0.1998 | 849.304 ± 0.14 | 1.752 ± 0.011
288.15 K, x1 = 0.2999 | 868.538 ± 0.14 | 1.533 ± 0.01
288.15 K, x1 = 0.3998 | 887.029 ± 0.13 | 1.38 ± 0.0097
288.15 K, x1 = 0.5 | 904.882 ± 0.13 | 1.258 ± 0.0094
288.15 K, x1 = 0.5999 | 922.323 ± 0.13 | 1.189 ± 0.0093
288.15 K, x1 = 0.7 | 939.461 ± 0.12 | 1.127 ± 0.0091
288.15 K, x1 = 0.8 | 956.178 ± 0.12 | 1.091 ± 0.009
288.15 K, x1 = 0.8998 | 972.394 ± 0.12 | 1.065 ± 0.009
288.15 K, x1 = 1 | 988.061 ± 0.12 | 1.03 ± 0.0089
293.15 K, x1 = 0.1001 | 825.041 ± 0.15 | 1.839 ± 0.011
293.15 K, x1 = 0.1998 | 845.036 ± 0.14 | 1.577 ± 0.01
293.15 K, x1 = 0.2999 | 864.154 ± 0.14 | 1.392 ± 0.0097
293.15 K, x1 = 0.3998 | 882.542 ± 0.14 | 1.261 ± 0.0094
293.15 K, x1 = 0.5 | 900.296 ± 0.13 | 1.156 ± 0.0092
293.15 K, x1 = 0.5999 | 917.643 ± 0.13 | 1.096 ± 0.009
293.15 K, x1 = 0.7 | 934.697 ± 0.13 | 1.043 ± 0.0089
293.15 K, x1 = 0.8 | 951.331 ± 0.12 | 1.012 ± 0.0089
293.15 K, x1 = 0.8998 | 967.464 ± 0.12 | 0.9891 ± 0.0088
293.15 K, x1 = 1 | 983.038 ± 0.12 | 0.9588 ± 0.0087
298.15 K, x1 = 0.1001 | 820.881 ± 0.15 | 1.651 ± 0.01
298.15 K, x1 = 0.1998 | 840.744 ± 0.14 | 1.426 ± 0.0098
298.15 K, x1 = 0.2999 | 859.747 ± 0.14 | 1.269 ± 0.0094
298.15 K, x1 = 0.3998 | 878.034 ± 0.14 | 1.157 ± 0.0092
298.15 K, x1 = 0.5 | 895.691 ± 0.13 | 1.066 ± 0.009
298.15 K, x1 = 0.5999 | 912.947 ± 0.13 | 1.014 ± 0.0089
298.15 K, x1 = 0.7 | 929.913 ± 0.13 | 0.9678 ± 0.0087
298.15 K, x1 = 0.8 | 946.465 ± 0.12 | 0.942 ± 0.0087
298.15 K, x1 = 0.8998 | 962.52 ± 0.12 | 0.9212 ± 0.0086
298.15 K, x1 = 1 | 978.006 ± 0.12 | 0.8943 ± 0.0086
303.15 K, x1 = 0.1001 | 816.69 ± 0.15 | 1.488 ± 0.01
303.15 K, x1 = 0.1998 | 836.425 ± 0.14 | 1.291 ± 0.0095
303.15 K, x1 = 0.2999 | 855.316 ± 0.14 | 1.165 ± 0.0092
303.15 K, x1 = 0.3998 | 873.5 ± 0.14 | 1.064 ± 0.009
303.15 K, x1 = 0.5 | 891.065 ± 0.13 | 0.9865 ± 0.0088
303.15 K, x1 = 0.5999 | 908.231 ± 0.13 | 0.9414 ± 0.0087
303.15 K, x1 = 0.7 | 925.114 ± 0.13 | 0.9013 ± 0.0086
303.15 K, x1 = 0.8 | 941.586 ± 0.12 | 0.879 ± 0.0086
303.15 K, x1 = 0.8998 | 957.564 ± 0.12 | 0.8608 ± 0.0085
303.15 K, x1 = 1 | 972.967 ± 0.12 | 0.8355 ± 0.0085
308.15 K, x1 = 0.1001 | 812.466 ± 0.15 | 1.355 ± 0.0097
308.15 K, x1 = 0.1998 | 832.074 ± 0.15 | 1.179 ± 0.0092
308.15 K, x1 = 0.2999 | 850.857 ± 0.14 | 1.065 ± 0.009
308.15 K, x1 = 0.3998 | 868.942 ± 0.14 | 0.9819 ± 0.0088
308.15 K, x1 = 0.5 | 886.415 ± 0.14 | 0.9149 ± 0.0086
308.15 K, x1 = 0.5999 | 903.494 ± 0.13 | 0.8753 ± 0.0086
308.15 K, x1 = 0.7 | 920.29 ± 0.13 | 0.8408 ± 0.0085
308.15 K, x1 = 0.8 | 936.687 ± 0.13 | 0.8222 ± 0.0084
308.15 K, x1 = 0.8998 | 952.593 ± 0.12 | 0.8059 ± 0.0084
308.15 K, x1 = 1 | 967.913 ± 0.12 | 0.7837 ± 0.0084
313.15 K, x1 = 0.1001 | 808.203 ± 0.15 | 1.205 ± 0.0093
313.15 K, x1 = 0.1998 | 827.676 ± 0.15 | 1.076 ± 0.009
313.15 K, x1 = 0.2999 | 846.364 ± 0.14 | 0.9804 ± 0.0088
313.15 K, x1 = 0.3998 | 864.355 ± 0.14 | 0.9082 ± 0.0086
313.15 K, x1 = 0.5 | 881.735 ± 0.14 | 0.8506 ± 0.0085
313.15 K, x1 = 0.5999 | 898.73 ± 0.13 | 0.8167 ± 0.0084
313.15 K, x1 = 0.7 | 915.449 ± 0.13 | 0.786 ± 0.0084
313.15 K, x1 = 0.8 | 931.765 ± 0.13 | 0.7718 ± 0.0083
313.15 K, x1 = 0.8998 | 947.604 ± 0.12 | 0.7566 ± 0.0083
313.15 K, x1 = 1 | 962.849 ± 0.12 | 0.7354 ± 0.0083
318.15 K, x1 = 0.1001 | 803.899 ± 0.15 | 1.103 ± 0.0091
318.15 K, x1 = 0.1998 | 823.264 ± 0.15 | 0.9855 ± 0.0088
318.15 K, x1 = 0.2999 | 841.834 ± 0.14 | 0.9038 ± 0.0086
318.15 K, x1 = 0.3998 | 859.731 ± 0.14 | 0.8426 ± 0.0085
318.15 K, x1 = 0.5 | 877.027 ± 0.14 | 0.7926 ± 0.0084
318.15 K, x1 = 0.5999 | 893.938 ± 0.13 | 0.7629 ± 0.0083
318.15 K, x1 = 0.7 | 910.581 ± 0.13 | 0.7363 ± 0.0083
318.15 K, x1 = 0.8 | 926.83 ± 0.13 | 0.7244 ± 0.0082
318.15 K, x1 = 0.8998 | 942.596 ± 0.12 | 0.711 ± 0.0082
318.15 K, x1 = 1 | 957.769 ± 0.12 | 0.6912 ± 0.0082
323.15 K, x1 = 0.1001 | 799.541 ± 0.15 | 1.009 ± 0.0089
323.15 K, x1 = 0.1998 | 818.793 ± 0.15 | 0.9116 ± 0.0086
323.15 K, x1 = 0.2999 | 837.265 ± 0.14 | 0.844 ± 0.0085
323.15 K, x1 = 0.3998 | 855.071 ± 0.14 | 0.7875 ± 0.0084
323.15 K, x1 = 0.5 | 872.286 ± 0.14 | 0.7452 ± 0.0083
323.15 K, x1 = 0.5999 | 889.121 ± 0.13 | 0.719 ± 0.0082
323.15 K, x1 = 0.7 | 905.688 ± 0.13 | 0.6954 ± 0.0082
323.15 K, x1 = 0.8 | 921.867 ± 0.13 | 0.6813 ± 0.0081
323.15 K, x1 = 0.8998 | 937.566 ± 0.13 | 0.6741 ± 0.0081
323.15 K, x1 = 1 | 952.673 ± 0.12 | 0.6507 ± 0.0081
